Laboratory results taken from US20080033057A1, “Hexahydro-isoalpha acid based protein kinase modulation cancer treatment” (Metaproteomics, LLC, priority 2006, published 2008).
Marks after values point to notes of the source that are not given here.

Tests used:
[1] = system: 3T3-L1 adipocytes; test: Adiponectin secretion from LPS-treated 3T3-L1 adipocytes; type: cell-based, murine; details: for induction of adiponectin secretion: any of the doses tested
[2] = system: 3T3-L1 adipocytes; test: Adiponectin secretion from insulin-resistant 3T3-L1 adipocytes; type: cell-based, murine
Procedure: 3T3-L1 cells were seeded at an initial density of 1×10^4 cells/cm^2 in 96-well plates. For two days, the cells were allowed grow to reach confluence. Following confluence, the cells were forced to differentiate into adipocytes by the addition of differentiation medium; this medium consisted of (1) 10% FBS/DMEM (high glucose); (2) 0.5 mM methylisobutylxanthine; (3) 0.5 μM dexamethasone and (4) 10 μg/ml insulin (MDI medium). From Day 3 through Day 5, the medium was changed to post-differentiation medium consisting of 10 μg/ml insulin in 10% FBS/DMEM.
Briefly, on Day 6, cells were maintained in serum-free media containing 0.5% bovine serum albumin (BSA) for three hours and then treated with 1 μg insulin/ml plus solvent or insulin plus test material. […] Twenty-four hours later, the supernatant medium was sampled for adiponectin determination.
Adiponectin Assay—The adiponectin secreted into the medium was quantified using the Mouse Adiponectin Quantikine® Immunoassay kit with no modifications (R&D Systems, Minneapolis, Minn.).
Statistical Calculations and Interpretation—All assays were preformed in duplicate. […] Differences between the doses were determined using the student's t-test without correction for multiple comparisons; the nominal five percent probability of a type I error was selected. […]

[3] = system: 3T3-L1 adipocytes; test: Lipogenesis (Oil Red O / BODIPY) in 3T3-L1 adipocytes; type: cell-based, murine; details: hops compounds 10, 5, 4 or 2 μg/ml; spent hops 50 μg/ml
Procedure: Prior to experiments, cells were cultured in DMEM containing 10% FBS-HI added 50 units penicillin/ml and 50 μg streptomycin/ml, and maintained in log phase prior to experimental setup. Cells were grown in a 5% CO2 humidified incubator at 37° C. Components of the pre-confluent medium included (1) 10% FBS/DMEM containing 4.5 g glucose/L; (2) 50 U/ml penicillin; and (3) 50 μg/ml streptomycin. Growth medium was made by adding 50 ml of heat inactivated FBS and 5 ml of penicillin/streptomycin to 500 ml DMEM. This medium was stored at 4° C. Before use, the medium was warmed to 37° C. in a water bath.
T3-T1 cells were seeded at an initial density of 6×10^4 cells/cm^2 in 24-well plates. For two days, the cells were allowed grow to reach confluence. Following confluence, the cells were forced to differentiate into adipocytes by the addition of differentiation medium; this medium consisted of (1) 10% FBS/DMEM (high glucose); (2) 0.5 mM methylisobutylxanthine; (3) 0.5 μM dexamethasone and (4) 10 μg/ml insulin (MDI medium). After three days, the medium was changed to post-differentiation medium consisting of 10 μg/ml insulin in 10% FBS/DMEM.
AcE was partially dissolved in dimethyl sulfoxide (DMSO) and added to the culture medium to achieve a concentration of 50 μg/ml at Day 0 of differentiation and throughout the maturation phase (Days 6 or 7 (D6/7)). […]
Oil Red O Staining—Triglyceride content of D6/D7-differentiated 3T3-L1 cells was estimated with Oil Red O according to the method of Kasturi and Joshi [Kasturi, R. and Joshi, V. C. […] The resulting stained oil droplets were extracted from the cells with isopropanol and quantified by spectrophotometric analysis at 540 nm (MEL312e BIO-KINETICS READER, Bio-Tek Instruments, Winooski, Vt.).
Briefly, media were removed and cells were washed once with non-sterile PBS. […] After 15 min on an orbital shaker (DS-500, VWR Scientific Products, South Plainfield, N.J.) at ambient temperature, the cells were washed with 100 μL PBS followed by the addition of 100 μl PBS for reading for spectrofluorometric determination of BODIPY incorporation into the cells. […]

[4] = system: 3T3-L1 adipocytes; test: IL-6 secretion from LPS-treated 3T3-L1 adipocytes; type: cell-based, murine; details: with 100 ng LPS/ml, D5 3T3-L1 adipocytes
[5] = system: 3T3-L1 adipocytes; test: Adiponectin secretion from TNFα-treated 3T3-L1 adipocytes; type: cell-based, murine
Procedure: For two days, the cells were allowed grow to reach confluence. […] (3) 0.5 μM dexamethasone and (4) 10 μg/ml insulin (MDI medium). […] Adiponectin Assay—The adiponectin secreted into the medium was quantified using the Mouse Adiponectin Quantikine® Immunoassay kit with no modifications (R&D Systems, Minneapolis, Minn.). […] Statistical Calculations and Interpretation—All assays were preformed in duplicate. […] Differences among the doses and test agents were determined using the Student's t-test without correction for multiple comparisons; the nominal five percent probability of a type I error was selected.

[6] = Non-fasting serum glucose and insulin in db/db diabetic mice; type: in vivo, mouse
Procedure: The Model—Male, C57BLKS/J m^+/m^+ Lepr^db (db/db) mice were used to assess the potential of the test materials to reduce fasting serum glucose or insulin concentrations.
Testing Procedure—Test substances were administered daily by gavage in 0.2% Tween-80. Serum was collected from the retroorbital sinus before the initial dose and ninety minutes after the third and final dose. Non-fasting serum glucose was determined enzymatically by the mutarotase/glucose oxidase method and serum insulin was determined by a mouse specific ELISA.
The Model—Male, C57BLKS/J m+/m+Leprdb (db/db) mice were used to assess the potential of the test materials to reduce fasting serum glucose or insulin concentrations.
Testing Procedure—Test substances were administered daily by gavage in 0.2% Tween-80. […] Non-fasting serum glucose was determined enzymatically by the mutarotase/glucose oxidase method and serum insulin was determined by a mouse specific ELISA.

[7] = system: A549 pulmonary epithelial cells; test: PGE2 biosynthesis in A549 cells stimulated by mite dust allergen; type: cell-based, human; details: 10 μg/ml, mite allergen 1000 ng/ml
Procedure: The filtrate was termed mite dust allergen and used to test for induction of PGE2 biosynthesis in A549 pulmonary epithelial cells.
Mite allergen was added to the culture medium to achieve a final concentration of 1000 ng/ml. Eighteen hours later, the media were sampled for PGE2 determination.

With `CC(=O)Oc1ccccc1C(=O)O` [Aspirin, aspirin] the “induction of adiponectin secretion” value ([1]; LPS 100 ng/ml) was “failed to induce adiponectin secretion”.

With `CC(C)CCC1=C(O)C(C(=O)C(C)C)=C(O)C(CCC(C)C)(CCC(C)C)C1=O` [Hexahydro colupulone, hexahydrocolupulone] the “dose of maximal observed adiponectin secretion” value ([2]; four doses tested) was 12.5 µg/mL and the “adipogenic (lipogenic) response compared with controls” value (from here on “adipogenic … compared with controls”) [3] was “failed to elicit a lipogenic response greater than the solvent controls”.

In the case of `CC(C)CCC1=C(O)C(C(=O)C(C)C)=C(O)C(CCC(C)C)(CCC(C)C)C1=O` [Hexahydrocolupulone (HHCL)], the Adiponectin/IL-6 ([2]; 50.0 μg/ml, ratio of adiponectin index to IL-6 index, insulin-resistant 3T3-L1) was 0.60#.

For `COc1ccc2c(c1)c(CC(=O)O)c(C)n2C(=O)c1ccc(Cl)cc1` [Indomethacin, indomethacin], the “Concentration providing the maximum inhibition of IL-6 secretion” value [4] was 5.00 µg/mL, the maximum adiponectin stimulation ([1]; LPS 100 ng/ml, […]) was 9% and the “Concentration of maximum stimulation of adiponectin secretion” value ([1]; LPS-treated D5 3T3-L1 adipocytes) was 2.50 µg/mL. For the same compound, the adiponectin secretion ([5]; 0.5 ng TNFα/ml) was “dose-dependant decrease in adiponectin secretion”, the “increase of adiponectin secretion in the presence of TNFα” value ([5]; 10 ng TNFα/ml, Example 16) was 94% and the “optimal concentration for adiponectin secretion” value ([5]; 10 ng TNFα/ml, Example 16) was 2.5 µg/mL. For the same compound, the Adiponectin/IL-6 ([5]; 10 ng TNFα/ml, […]) was 2.00*.

For `CCc1ccc(CCOc2ccc(CC3SC(=O)NC3=O)cc2)nc1` (stereo not shown) [Pioglitazone, pioglitazone], the “Concentration providing the maximum inhibition of IL-6 secretion” value [4] was 5.00 µg/mL, the “optimal concentration for adiponectin secretion” value ([5]; 10 ng TNFα/ml, Example 16) was 1.25 µg/mL and the “Concentration of maximum adiponectin secretion over four doses” value ([5]; 10 ng TNFα/ml, Example 17) was 1.25 µg/mL.

For `Cc1c(C)c2c(c(C)c1O)CCC(C)(COc1ccc(CC3SC(=O)NC3=O)cc1)O2` (stereo not shown) [Troglitazone, troglitazone], the “Concentration providing the maximum inhibition of IL-6 secretion” value [4] was 10.0 µg/mL and the “maximum increase of adiponectin secretion from the TNFα solvent control” value ([5]; 10 ng/ml TNFα) was 51%.

In the case of `COc1cc(O)c(CC=C(C)C)c(O)c1C(=O)/C=C/c1ccc(O)cc1` [Xanthohumol, xanthohumol], the “adipogenic … compared with controls” value [3] was “comparable to indomethacin and troglitazone”.

With `CN(C)C(=N)N=C(N)N` [metformin] the “serum glucose relative to the controls” value ([6]; three consecutive days) was “decreased both serum glucose and insulin concentrations”.

With `CN(CCOc1ccc(CC2SC(=O)NC2=O)cc1)c1ccccn1` (stereo not shown) [rosiglitazone] the “Glucose [% Pretreatment]” value ([6]; db/db mice, non-fasting serum, 1.0 mg/kg-day by gavage, three days) was 83.0# % Pretreatment.

For `O=C(O)c1ccccc1O` [salicylic acid], the “induction of adiponectin secretion” value ([1]; LPS 100 ng/ml) was “failed to induce adiponectin secretion”.

For Beta acids, the “Percent PGE2 Inhibition” value [7] was 83% and the “adipogenic … compared with controls” value [3] was “comparable to indomethacin and troglitazone”.
